Reference: patent publication US8759033B2, “CSNR-deficient actinobacteria for the production of an enzyme having chitosanase activity” (Socpra Sciences et Genie S.E.C., priority 2012, dated 2014)

Columns and labels:
CsnR [1] = target: T1, CsnR (Streptomyces lividans, UniProt A0ABN4DYL3); assay: EMSA sugar binding assay: interference with CsnR binding to csnA-WT operator; conditions: for effect on CsnR binding to operator (summary statement): equilibrium competition experiment and IC50 determination; for effect on gel shift pattern of CsnR with csnA-WT operator: saccharide at 500 nM, FIG. 9; for interference with CsnR binding to the csnA-WT probe: maximal tested concentration of 75 mM
T1 sequence (A0ABN4DYL3 entry or part of it): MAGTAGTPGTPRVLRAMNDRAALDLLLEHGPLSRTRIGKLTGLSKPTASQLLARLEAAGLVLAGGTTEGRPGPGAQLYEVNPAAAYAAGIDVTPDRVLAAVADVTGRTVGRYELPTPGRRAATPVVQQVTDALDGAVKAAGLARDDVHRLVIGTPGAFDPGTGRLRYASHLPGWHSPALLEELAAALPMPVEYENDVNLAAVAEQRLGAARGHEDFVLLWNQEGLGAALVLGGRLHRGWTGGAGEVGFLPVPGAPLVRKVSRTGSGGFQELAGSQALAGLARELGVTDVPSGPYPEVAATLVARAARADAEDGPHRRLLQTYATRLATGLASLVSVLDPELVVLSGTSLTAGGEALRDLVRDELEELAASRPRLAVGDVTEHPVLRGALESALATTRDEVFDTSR
Description: For the electrophoretic mobility shift assay (EMSA), pairs of complementary oligonucleotides were annealed, generating double-stranded oligonucleotides csnA-WT (wild type), csnA-M1, csnA-M2, csnA-MM, and csnR-WT (see Table 3). Fifty picomoles of double-stranded oligonucleotide was end labeled with ^[γ-32P]ATP (3,000 Ci/mmol) and 20 U of T4 polynucleotide kinase and purified on a G-25 column. DNA binding reaction mixtures (24 μl) contained 10 mM HEPES (pH 7.9), 10% glycerol, 0.2 mM EDTA, 0.5 mM phenylmethylsulfonyl fluoride (PMSF), 0.25 mM DTT, 1 μg poly(dI-dC), and 150 mM KCl. For equilibrium dissociation constant (KD) determination, various concentrations of labeled csnA-WT or csnR-WT probe (0.1 nM to 1.5 nM) and ˜8.5 pmol of purified CsnR were used. For the determination of the 50% inhibitory concentration (IC50) of the DNA competitors, 0.03 nM labeled csnA-WT probe and ˜8.5 pmol of CsnR were used with various concentrations of competitor double-stranded oligonucleotide (0.1 to 125 nM). For the sugar binding assay, ˜8.5 pmol of CsnR was preincubated with glucose, GlcNAc, galactosamine, GlcN, or chitosan oligosaccharides (GlcN)2 to ([…]) in the binding reaction mixture for 15 min on ice before the addition of labeled csnA-WT probe (0.03 nM). Reaction mixtures were incubated at room temperature for 15 min with the labeled probe and then subjected to electrophoresis at 4° C. in a prerun gel (15 min) of 6% polyacrylamide (10 mM Tris, 80 mM glycine, 0.4 mM EDTA [pH 8.3]). Following electrophoresis, gels were dried, and band intensities were visualized with a Phosphorlmager™ and estimated with ImageQuant™ software (version 5.2). All determinations were done in triplicate. KD calculations were done with the Michaelis-Menten nonlinear fit (least squares), and the one-site log IC50 nonlinear fit (least squares) was used for IC50 calculations (GraphPad Prism™ version 5.03 for Windows; GraphPad, San Diego, Calif.).

CsnR [2] = target: T1, CsnR; assay: EMSA equilibrium competition with DNA competitors against labeled csnA-WT probe; conditions: competitor double-stranded oligonucleotide 0.1 to 125 nM, 0.03 nM labeled csnA-WT probe, ~8.5 pmol CsnR, three independent experiments; read-out: IC50 (nM), effect of mutations in the operator sequence on CsnR binding
Description: For the electrophoretic mobility shift assay (EMSA), pairs of complementary oligonucleotides were annealed, generating double-stranded oligonucleotides csnA-WT (wild type), csnA-M1, csnA-M2, csnA-MM, and csnR-WT (see Table 3). Fifty picomoles of double-stranded oligonucleotide was end labeled with ^[γ-32P]ATP (3,000 Ci/mmol) and 20 U of T4 polynucleotide kinase and purified on a G-25 column. DNA binding reaction mixtures (24 μl) contained 10 mM HEPES (pH 7.9), 10% glycerol, 0.2 mM EDTA, 0.5 mM phenylmethylsulfonyl fluoride (PMSF), 0.25 mM DTT, 1 μg poly(dI-dC), and 150 mM KCl. For equilibrium dissociation constant (KD) determination, various concentrations of labeled csnA-WT or csnR-WT probe (0.1 nM to 1.5 nM) and ˜8.5 pmol of purified CsnR were used. For the determination of the 50% inhibitory concentration (IC50) of the DNA competitors, 0.03 nM labeled csnA-WT probe and ˜8.5 pmol of CsnR were used with various concentrations of competitor double-stranded oligonucleotide (0.1 to 125 nM). For the sugar binding assay, ˜8.5 pmol of CsnR was preincubated with glucose, GlcNAc, galactosamine, GlcN, or chitosan oligosaccharides (GlcN)2 to (GlcN)5 at various concentrations (0.00075 to 75 mM) in the binding reaction mixture for 15 min on ice before the addition of labeled csnA-WT probe (0.03 nM). Reaction mixtures were incubated at room temperature for 15 min with the labeled probe and then subjected to electrophoresis at 4° C. in a prerun gel (15 min) of 6% polyacrylamide (10 mM Tris, 80 mM glycine, 0.4 mM EDTA [pH 8.3]). Following electrophoresis, gels were dried, and band intensities were visualized with a Phosphorlmager™ and estimated with ImageQuant™ software (version 5.2). All determinations were done in triplicate. KD calculations were done with the Michaelis-Menten nonlinear fit (least squares), and the one-site log IC50 nonlinear fit (least squares) was used for IC50 calculations (GraphPad Prism™ version 5.03 for Windows; GraphPad, San Diego, Calif.).

Compound	effect on CsnR binding to operator (summary statement) (CsnR [1])	effect on gel shift pattern of CsnR with csnA-WT operator (CsnR [1])	interference with CsnR binding to the csnA-WT probe (CsnR [1])	effect on CsnR binding to operator (summary statement) (CsnR [1]; listed as (GlcN)2)	IC50 (CsnR [2]) [nM]
N[C@H]1C(O)O[C@H](CO)[C@@H](O)[C@@H]1O (stereo partly drawn) [GlcN, D-glucosamine]	impaired	strongly affected	–	–	–
CC(=O)N[C@H]1C(O)O[C@H](CO)[C@@H](O)[C@@H]1O (stereo partly drawn) [GlcNAc, N-acetyl-D-glucosamine]	no effect	no effect	do not interfere	–	–
NC1C(OC2C(CO)OC(O)C(N)C2O)OC(CO)C(O)C1O (stereo not drawn) [chitosan dimer]	best effector	strongly affected	–	preferential CsnR ligand molecule	–
NC1C(OC2C(CO)OC(OC3C(CO)OC(OC4C(CO)OC(OC5C(CO)OC(O)C(N)C5O)C(N)C4O)C(N)C3O)C(N)C2O)OC(CO)C(O)C1O (stereo not drawn) [chitosan pentamer]	–	strongly affected	–	–	–
N[C@H]1C(O)O[C@H](CO)[C@H](O)[C@@H]1O (stereo partly drawn) [galactosamine]	no effect	–	do not interfere	–	–
O=C[C@H](O)[C@@H](O)[C@H](O)[C@H](O)CO [glucose]	no effect	no effect	do not interfere	–	–
csnA-M1: double-stranded oligonucleotide, csnA operator mutated at position +2, SEQ ID NO: 43 (DNA CCTCTTCTGGTAGGAAACTGTCCTATCAGT; double-stranded, further chemistry not given here)	–	–	–	–	52.1
csnA-M2: double-stranded oligonucleotide, csnA operator mutated at position +6, SEQ ID NO: 44 (DNA CCTCTTCTGGTAGGAAACTTTCCGATCAGT; double-stranded, further chemistry not given here)	–	–	–	–	2.7
csnA-MM: double-stranded oligonucleotide, csnA operator doubly mutated at +2 and +6, SEQ ID NO: 45 (CCTCTTCTGGTAGGAAACTGTCCGATCAGT; double-stranded, further chemistry not given here)	–	–	–	–	105
csnA-WT: double-stranded oligonucleotide, wild-type csnA operator, SEQ ID NO: 42 (CCTCTTCTGGTAGGAAACTTTCCTATCAGT; double-stranded, further chemistry not given here)	–	–	–	–	1.3
